In article PMC10056348, “Photocaged Histone Deacetylase Inhibitors as Prodrugs in Targeted Cancer Therapy” (Pharmaceuticals, 2023):

Key:
HepG2 cancer cell line = tested on: HepG2 cancer cell line; parameters: method as in PMID 30664827; settings: cited from earlier work
[1] = tested on: asexual blood stage and liver stage parasites; parameters: method as in PMID 30664827; settings: cited from earlier work
[2] = tested on: acetyl-histone H3 in MV-3 cells; test: Immunoblot of acetyl-histone H3 (marker of HDAC1-3 inhibition); assay type: cell-based; settings: 24 h, 3.1 µM, after UV irradiation (365 nm, 10 min)
Procedure: MV-3 cells were seeded to cell culture flasks and cultured for 48 h. Aliquots of the DMSO stock solution (10 mM) designated for photolysis were irradiated for 10 min with the UV reactor (see Section 4.3). The cells were treated with the stock solutions, processed with or without irradiation, of the indicated concentration or vehicle (DMSO) for 24 h. Cell lysis was performed with Cell Extraction Buffer (10 mM Tris, pH 7.4, 100 mM NaCl, 1 mM EDTA, 1 mM EGTA, 1 mM NaF, 20 mM Na4P2O7, 2 mM Na3VO4, 1% Triton™ ×-100, 10% glycerol, 0.1% SDS, 0.5% deoxycholate; Catalog# FNN0011, Thermo Fisher Scientific Inc., Waltham, MA, USA) and addition of Halt Protease Inhibitor Cocktail (100×) (Catalog# 78429, Life Technologies GmbH Carlsbad, CA, USA) and phenylmethanesulfonyl fluoride (Catalog# 10837091001, Sigma-Aldrich, St. Louis, MO, USA) according to manufacturer instructions. Protein content was determined by Pierce™ BCA Protein Assay Kit (Catalog# 23225, Thermo Fisher Scientific Inc., Waltham, MA, USA) according to manufacturer guidelines. Samples were denatured by Laemmli 2× Concentrate (Catalog# S3401-10VL, Sigma-Aldrich, St. Louis, MO, USA), and Precision Plus Protein Unstained Standard was used as molecular weight marker (Catalog# 1610363, Bio-Rad, Hercules, CA, USA). […]

Compound | antiproliferative activity against HepG2 (HepG2 cancer cell line) | antiplasmodial activity [1] | level of acetyl-histone H3 [2]
CN(C)c1ccc(C(=O)N(CC(=O)NCc2ccccc2)Cc2ccc(C(=O)NO)cc2)cc1 [I, N-[2-(benzylamino)-2-oxoethyl]-4-(dimethylamino)-N-[4-(hydroxycarbamoyl)-benzyl]-benzamide] | submicromolar antiproliferative activity | potent antiplasmodial activity | 
COc1cc(CONC(=O)c2ccc(CN(CC(=O)NCc3ccccc3)C(=O)c3ccc(N(C)C)cc3)cc2)c([N+](=O)[O-])cc1OC [pc-I, N-[2-(Benzylamino)-2-oxoethyl]-N-(4-{[(4,5-dimethoxy-2-nitrobenzyl)oxy]carbamoyl}benzyl)-4-(dimethylamino)benzamide] |  |  | higher amount of acetyl-histone-H3
